{"source": "patent US7105654B1", "about": "“Ethylene receptor gene from Glycine max and its use” (Monsanto Technology LLC, priority 2002, dated 2006)", "test_system": "soybean (Glycine max) seedlings", "experiment": "ACC insensitivity assay (hypocotyl length of dark-grown seedlings)", "type": "in vivo", "conditions": "nontransformed soybean variety Asgrow A4922, grown in the dark; without ACC greater than 70 millimeters", "protocol": "FIG. 4. R1 seeds from pMON47103, pMON47104, and pMON47108 were screened by an ACC insensitivity assay. […] Hypocotyl length was measured after six days and the average value presented.\nSeeds were germinated in growth pouches (Mega International, Minneapolis, Minn.) containing 25 milliliters of 25 micromolar 1-aminocyclopropane-1-carboxylic acid (ACC) (Sigma Chemical Company) or in tissue culture boxes containing agar, water, and 20 micromolar ACC. Seedlings were kept in the dark for seven days. Growth of hypocotyl and root were scored in comparison to seedlings grown in water with all other conditions identical. An alternative protocol was used to measure growth in a solid matrix. Vermiculite was placed in a 4″×4″ plastic pot to ½″ below the rim. Twelve seeds were placed in each pot beneath the surface of the vermiculite. A solution of 500 micromolar ACC in distilled water was used to saturate the vermiculite. The pots were placed in a tray with additional solution to ensure a supply during incubation. The plants were incubated in a dark ventilated cabinet at room temperature for six days. On the sixth day, seedlings were removed from the vermiculite and rinsed. The hypocotyl length (from first lateral root to the bend of the apical hook) was measured and compared against wild type plants grown in the same environmental condition. […]", "data": [{"smiles": "NC1(C(=O)O)CC1", "note": "[ACC, 1-aminocyclopropane-1-carboxylic acid]", "values": [{"measurement": "average height of seedlings in response to applied ACC", "value": "less than 20 millimeters"}]}]}
